Read-outs that look alike come from different tables or passages of the source.
Key:
human MER (528-end) = biological target: T1, human MER (528-end) (Homo sapiens, UniProt Q12866); assay: HTRF kinase activity biochemical assay, MER
T1 construct: human MER (528-end); purchased Camnabio, Japan
T1 sequence (Q12866 528-999 limits assumed): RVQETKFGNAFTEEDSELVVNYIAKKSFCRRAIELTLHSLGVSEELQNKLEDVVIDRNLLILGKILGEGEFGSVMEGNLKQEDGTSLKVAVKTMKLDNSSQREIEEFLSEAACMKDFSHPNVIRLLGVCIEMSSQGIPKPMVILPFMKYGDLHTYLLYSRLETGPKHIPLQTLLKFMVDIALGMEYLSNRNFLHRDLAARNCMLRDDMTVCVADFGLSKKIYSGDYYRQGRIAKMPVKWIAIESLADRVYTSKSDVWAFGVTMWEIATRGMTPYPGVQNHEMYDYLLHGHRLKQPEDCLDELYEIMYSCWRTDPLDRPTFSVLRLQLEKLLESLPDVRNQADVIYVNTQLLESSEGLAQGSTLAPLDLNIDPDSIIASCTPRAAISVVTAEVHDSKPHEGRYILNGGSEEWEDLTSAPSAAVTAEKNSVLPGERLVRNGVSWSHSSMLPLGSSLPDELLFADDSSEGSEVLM

human AXL (473-end) = biological target: T2, human AXL (473-end) (Homo sapiens, UniProt P30530); assay: HTRF kinase activity biochemical assay, AXL
T2 construct: human AXL (473-end); purchased SignalChem, Canada
T2 sequence (P30530 473-894 limits assumed): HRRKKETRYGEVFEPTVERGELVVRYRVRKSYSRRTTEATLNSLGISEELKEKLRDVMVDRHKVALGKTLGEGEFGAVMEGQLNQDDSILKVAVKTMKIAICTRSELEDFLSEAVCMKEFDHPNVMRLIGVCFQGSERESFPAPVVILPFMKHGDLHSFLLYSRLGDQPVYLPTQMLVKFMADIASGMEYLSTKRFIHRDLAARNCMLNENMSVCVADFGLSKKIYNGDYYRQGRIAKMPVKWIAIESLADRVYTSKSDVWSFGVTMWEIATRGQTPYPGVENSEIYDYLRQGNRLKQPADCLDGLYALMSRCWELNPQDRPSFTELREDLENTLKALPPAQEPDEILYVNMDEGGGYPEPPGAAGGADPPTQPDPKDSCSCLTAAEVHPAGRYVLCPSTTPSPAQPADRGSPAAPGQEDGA

human TYRO3 (455-end) = biological target: T3, human TYRO3 (455-end) (Homo sapiens, UniProt Q06418); assay: HTRF kinase activity biochemical assay, TYRO3; settings: 10 μM ATP, 30 minutes pre-incubation; read-out: HTRF TYRO IC50
T3 construct: TYRO3 (455-end); purchased SignalChem, Canada
T3 sequence (Q06418 455-890 limits assumed): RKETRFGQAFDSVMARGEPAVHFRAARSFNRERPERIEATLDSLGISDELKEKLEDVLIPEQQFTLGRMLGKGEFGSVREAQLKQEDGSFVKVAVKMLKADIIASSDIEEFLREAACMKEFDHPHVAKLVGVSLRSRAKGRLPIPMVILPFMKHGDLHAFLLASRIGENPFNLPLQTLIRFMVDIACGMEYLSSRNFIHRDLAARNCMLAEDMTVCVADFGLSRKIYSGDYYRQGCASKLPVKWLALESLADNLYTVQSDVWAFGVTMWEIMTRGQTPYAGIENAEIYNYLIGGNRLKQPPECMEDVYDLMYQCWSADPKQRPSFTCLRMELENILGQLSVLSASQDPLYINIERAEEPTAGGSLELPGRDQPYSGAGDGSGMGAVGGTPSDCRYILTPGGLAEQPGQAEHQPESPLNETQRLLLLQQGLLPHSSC

[1] = system: phospho-MerTK in BaF3.MerTK tumors; assay: In vivo Ba/F3 pMER ALISA assay; settings: orally; for % inhibition: 50 milligrams per kilogram, single dose, tumors harvested 4 hours after, phospho-MerTK normalized to total MerTK; for % inhibition in the in vivo Ba/F3 pMer ALISA Assay: as shown in Tables 3 and 4: 50 milligrams per kilogram
Experimental: BaF3.MerTK tumor cells were mixed with 50% Matrigel (BD, Franklin Lakes, NJ). […] Tumors were allocated into dose groups at 10 to 11 days post tumor cell inoculation, when they were roughly 250-400 mm^3 in size. Test compounds were formulated in 10% ethanol, 30% PEG-400, and 60% Phosal-50PG, for oral dosing at 0.2 mL per dose per mouse. Plasma and tumors were harvested 4 hours after a single dose. Ba/F3 tumors were harvested into 2 mL Precellys CKmix tubes, snap frozen in liquid nitrogen, and stored at −80° C. overnight. […] Precellys tubes were then centrifuged at >18,000 g for 20 minutes at 4° C. and the supernatant was collected on ice. The lysate was then centrifuged again at >18,000 g for 10 minutes at 4° C. to remove any residual debris. […] Plates were then frozen at −80° C. overnight.

[2] = 10 μM ATP, 30 minutes pre-incubation, read-out: HTRF MERTK IC50
[3] = 10 μM ATP, 30 minutes pre-incubation
[4] = in vitro, read-out: HTRF MerTK IC50

| SMILES | IC50 (human MER (528-end); [2]) | IC50 (human AXL (473-end); [3]) | IC50 (human TYRO3 (455-end)) | IC50 (human MER (528-end); [4]) | IC50 (human AXL (473-end); in vitro) | % inhibition [1] | % inhibition in the in vivo Ba/F3 pMer ALISA Assay [1] |
| --- | --- | --- | --- | --- | --- | --- | --- |
| COc1ccc(-c2cnc(N)c(C(=O)N[C@H]3CCC[C@@H]3OCc3ccc(-c4ccc5c(c4)CC[C@@H]5N4CCN(CCO)CC4)cc3)c2)cn1 [Example 151, 6-amino-N-{(1S,2S)-2-[(4-{(1S)-1-[4-(2-hydroxyethyl)piperazin-1-yl]-2,3-dihydro-1H-inden-5-yl}phenyl)methoxy]cyclopentyl}-6′-methoxy[3,3′-bipyridine]-5-carboxamide] | < 10 nM | < 10 nM | 10 to 100 nM | – | – | 66% | – |
| Nc1ncc(-c2cncs2)cc1C(=O)N[C@H]1CCC[C@@H]1OCc1ccc(-c2ccc3c(c2)CC[C@@H]3N2CCN(CCO)CC2)cc1 [Example 176, 2-amino-N-{(1S,2S)-2-[(4-{(1S)-1-[4-(2-hydroxyethyl)piperazin-1-yl]-2,3-dihydro-1H-inden-5-yl}phenyl)methoxy]cyclopentyl}-5-(1,3-thiazol-5-yl)pyridine-3-carboxamide] | < 10 nM | < 10 nM | 10 to 100 nM | – | – | – | – |
| Nc1ncc(-c2ccccn2)cc1C(=O)N[C@H]1CCC[C@@H]1OCc1ccc(-c2ccc3c(c2)CC[C@@H]3N2CCN(CCO)CC2)cc1 [Example 177, 6′-amino-N-{(1S,2S)-2-[(4-{(1S)-1-[4-(2-hydroxyethyl)piperazin-1-yl]-2,3-dihydro-1H-inden-5-yl}phenyl)methoxy]cyclopentyl}[2,3′-bipyridine]-5′-carboxamide] | < 10 nM | < 10 nM | 10 to 100 nM | – | – | – | – |
| COc1cccc(-c2cnc(N)c(C(=O)N[C@H]3CCC[C@@H]3OCc3ccc(-c4ccc5c(c4)CC[C@@H]5N4CCN(CCO)CC4)cc3)c2)n1 [Example 178, 6′-amino-N-{(1S,2S)-2-[(4-{(1S)-1-[4-(2-hydroxyethyl)piperazin-1-yl]-2,3-dihydro-1H-inden-5-yl}phenyl)methoxy]cyclopentyl}-6-methoxy[2,3′-bipyridine]-5′-carboxamide] | < 10 nM | < 10 nM | 10 to 100 nM | – | – | – | – |
| COc1nc(-c2cnc(N)c(C(=O)N[C@H]3CCC[C@@H]3OCc3ccc(-c4ccc5c(c4)CC[C@@H]5N4CCN(CCO)CC4)cc3)c2)cs1 [Example 179, 2-amino-N-{(1S,2S)-2-[(4-{(1S)-1-[4-(2-hydroxyethyl)piperazin-1-yl]-2,3-dihydro-1H-inden-5-yl}phenyl)methoxy]cyclopentyl}-5-(2-methoxy-1,3-thiazol-4-yl)pyridine-3-carboxamide] | < 10 nM | < 10 nM | 10 to 100 nM | – | – | – | – |
| Cc1nc(-c2cnc(N)c(C(=O)N[C@H]3CCC[C@@H]3OCc3ccc(-c4ccc5c(c4)CC[C@@H]5N4CCN(CCO)CC4)cc3)c2)cs1 [Example 180, 2-amino-N-{(1S,2S)-2-[(4-{(1S)-1-[4-(2-hydroxyethyl)piperazin-1-yl]-2,3-dihydro-1H-inden-5-yl}phenyl)methoxy]cyclopentyl}-5-(2-methyl-1,3-thiazol-4-yl)pyridine-3-carboxamide] | < 10 nM | < 10 nM | 10 to 100 nM | – | – | – | – |
| Cc1csc(-c2cnc(N)c(C(=O)N[C@H]3CCC[C@@H]3OCc3ccc(-c4ccc5c(c4)CC[C@@H]5N4CCN(CCO)CC4)cc3)c2)n1 [Example 181, 2-amino-N-{(1S,2S)-2-[(4-{(1S)-1-[4-(2-hydroxyethyl)piperazin-1-yl]-2,3-dihydro-1H-inden-5-yl}phenyl)methoxy]cyclopentyl}-5-(4-methyl-1,3-thiazol-2-yl)pyridine-3-carboxamide] | < 10 nM | < 10 nM | 10 to 100 nM | – | – | – | – |

Further lines, with some results ahead:

| IC50 (human MER (528-end); [2]) | IC50 (human AXL (473-end); [3]) | IC50 (human TYRO3 (455-end)) | IC50 (human MER (528-end); [4]) | IC50 (human AXL (473-end); in vitro) | SMILES | % inhibition [1] | % inhibition in the in vivo Ba/F3 pMer ALISA Assay [1] |
| --- | --- | --- | --- | --- | --- | --- | --- |
| < 10 nM | < 10 nM | 10 to 100 nM | – | – | Nc1ncc(-c2ccc(F)nc2)cc1C(=O)N[C@H]1CCC[C@@H]1OCc1ccc(-c2ccc3c(c2)CC[C@@H]3N2CCN(CCO)CC2)cc1 [Example 46, 6-amino-6′-fluoro-N-{(1S,2S)-2-[(4-{(1S)-1-[4-(2-hydroxyethyl)piperazin-1-yl]-2,3-dihydro-1H-inden-5-yl}phenyl)methoxy]cyclopentyl}[3,3′-bipyridine]-5-carboxamide] | 37% | – |
| < 10 nM | < 10 nM | < 10 nM | < 10 nM | < 10 nM | Cn1cc(-c2cnc(N)c(C(=O)N[C@H]3CCC[C@@H]3OCc3ccc(-c4ccc5c(c4)C(C)(C)CC5N4CCN(CCO)CC4)cc3)c2)cn1 (stereo partly drawn) [Example 83, 2-amino-N-{(1S,2S)-2-[(4-{1-[4-(2-hydroxyethyl)piperazin-1-yl]-3,3-dimethyl-2,3-dihydro-1H-inden-5-yl}phenyl)methoxy]cyclopentyl}-5-(1-methyl-1H-pyrazol-4-yl)pyridine-3-carboxamide] | 58% | 58% |
| < 10 nM | < 10 nM | < 10 nM | – | – | CN1CCN(C2CC(C)(C)c3cc(-c4ccc(CO[C@H]5CCC[C@@H]5NC(=O)c5cc(-c6cnn(C)c6)cnc5N)cc4)ccc32)CC1 (stereo partly drawn) [Example 93, 2-amino-N-[(1S,2S)-2-({4-[3,3-dimethyl-1-(4-methylpiperazin-1-yl)-2,3-dihydro-1H-inden-5-yl]phenyl}methoxy)cyclopentyl]-5-(1-methyl-1H-pyrazol-4-yl)pyridine-3-carboxamide] | 53% | – |
| < 10 nM | < 10 nM | < 10 nM | < 10 nM | < 10 nM | Cn1cc(-c2cnc(N)c(C(=O)N[C@H]3CCC[C@@H]3OCc3ccc(-c4ccc5c(c4)C(C)(C)C[C@@H]5N4CCN(CCO)CC4)cc3)c2)cn1 [Example 103, 2-amino-N-{(1S,2S)-2-[(4-{(1S)-1-[4-(2-hydroxyethyl)piperazin-1-yl]-3,3-dimethyl-2,3-dihydro-1H-inden-5-yl}phenyl)methoxy]cyclopentyl}-5-(1-methyl-1H-pyrazol-4-yl)pyridine-3-carboxamide] | 74% | 74% |
| < 10 nM | < 10 nM | 100 to 1000 nM | – | – | Nc1ncc(-c2ccc(F)nc2)cc1C(=O)N[C@H]1CCC[C@@H]1OCc1ccc(-c2ccc3c(c2)CC[C@@H]3N2CCN3C[C@H](O)C[C@H]3C2)cc1 [Example 117, 6-amino-6′-fluoro-N-{(1S,2S)-2-[(4-{(1S)-1-[(7R,8aS)-7-hydroxyhexahydropyrrolo[1,2-a]pyrazin-2 (1H)-yl]-2,3-dihydro-1H-inden-5-yl}phenyl)methoxy]cyclopentyl}[3,3′-bipyridine]-5-carboxamide] | 64% | – |
| < 10 nM | < 10 nM | 10 to 100 nM | – | – | CN1CCN(C2CCCc3cc(-c4ccc(CO[C@H]5CCC[C@@H]5NC(=O)c5cc(-c6cnn(C)c6)cnc5N)cc4)ccc32)CC1 (stereo partly drawn) [Example 120, 2-amino-N-[(1S,2S)-2-({4-[5-(4-methylpiperazin-1-yl)-5,6,7,8-tetrahydronaphthalen-2-yl]phenyl}methoxy)cyclopentyl]-5-(1-methyl-1H-pyrazol-4-yl)pyridine-3-carboxamide] | 67% | – |
| < 10 nM | < 10 nM | < 10 nM | – | – | CN1CCN([C@H]2CC(C)(C)c3cc(-c4ccc(CO[C@H]5CCC[C@@H]5NC(=O)c5cc(-c6cnn(C)c6)cnc5N)cc4)ccc32)CC1 [Example 144, 2-amino-N-[(1S,2S)-2-({4-[(1S)-3,3-dimethyl-1-(4-methylpiperazin-1-yl)-2,3-dihydro-1H-inden-5-yl]phenyl}methoxy)cyclopentyl]-5-(1-methyl-1H-pyrazol-4-yl)pyridine-3-carboxamide] | 93% | – |

— patent US20260146035A1, “FUSED BICYCLIC COMPOUNDS AND THEIR USE AS MER AND AXL INHIBITORS” (DONG-A ST CO., LTD., priority 2022, published 2026)
